Where “and” joins values, the source holds several entries; their conditions need not be identical. Identical values can stand only once. Like-named read-outs stand apart in the source and are kept apart here.
Experiments:
ruLAP2 = ruLAP2 (Trichophyton rubrum, UniProt Q5QHG6); format: biochemical; details: for effect of inhibitor on ruLAP2 activity: Leu-AMC 5 mM; for ruLAP2 activity as percentage of control reaction without any cation / ruLAP2 activity as percentage of control reaction without inhibitor: Leu-MCA substrate, 15 min pre-incubation
[1] = molecular target: T1, pkLAP (microsomal LAP from porcine kidney) (Sus scrofa, UniProt P15145); assay: Effect of inhibitors and metallic cations on LAP activity (Leu-AMC); format: biochemical
T1 construct: purchased Sigma; host or cells: porcine kidney
T1 sequence (P15145 1-963): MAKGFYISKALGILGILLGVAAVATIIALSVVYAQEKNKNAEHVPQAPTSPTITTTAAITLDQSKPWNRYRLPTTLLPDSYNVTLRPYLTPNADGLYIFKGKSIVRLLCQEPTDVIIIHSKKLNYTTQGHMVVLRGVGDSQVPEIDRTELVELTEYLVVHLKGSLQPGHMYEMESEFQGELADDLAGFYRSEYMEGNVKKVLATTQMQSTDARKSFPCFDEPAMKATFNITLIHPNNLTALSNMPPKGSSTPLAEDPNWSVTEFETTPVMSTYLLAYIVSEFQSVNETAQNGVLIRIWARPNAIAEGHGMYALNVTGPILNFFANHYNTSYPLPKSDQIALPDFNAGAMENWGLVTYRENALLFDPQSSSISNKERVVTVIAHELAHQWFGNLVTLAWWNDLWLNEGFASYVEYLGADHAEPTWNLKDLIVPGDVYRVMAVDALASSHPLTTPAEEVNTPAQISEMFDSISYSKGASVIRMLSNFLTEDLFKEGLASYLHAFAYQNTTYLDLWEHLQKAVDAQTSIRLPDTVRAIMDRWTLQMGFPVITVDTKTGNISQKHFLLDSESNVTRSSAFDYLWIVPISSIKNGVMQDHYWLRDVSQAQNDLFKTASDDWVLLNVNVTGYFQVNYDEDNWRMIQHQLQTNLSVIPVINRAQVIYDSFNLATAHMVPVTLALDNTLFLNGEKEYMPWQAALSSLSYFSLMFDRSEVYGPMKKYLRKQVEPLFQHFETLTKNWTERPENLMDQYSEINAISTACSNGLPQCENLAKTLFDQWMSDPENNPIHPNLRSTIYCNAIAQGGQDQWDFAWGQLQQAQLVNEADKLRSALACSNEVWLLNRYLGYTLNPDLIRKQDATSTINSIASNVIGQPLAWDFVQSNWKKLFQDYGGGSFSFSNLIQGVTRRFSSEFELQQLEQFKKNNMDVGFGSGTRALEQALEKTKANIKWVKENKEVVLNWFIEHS

fuLAP2 = format: biochemical, Aspergillus fumigatus; details: for effect of inhibitor on fuLAP2 activity: Leu-AMC 5 mM
fuLAP1 = fuLAP1 (Aspergillus fumigatus, UniProt Q5VJG6); assay: biochemical; format: biochemical
ruLAP1 = ruLAP1 (Trichophyton rubrum, UniProt Q5QHG5); format: biochemical; details: for effect of inhibitor on ruLAP1 activity: Leu-AMC 5 mM
[2] = read-out: pkLAP activity as percentage of control reaction without inhibitor
[3] = read-out: fuLAP1 activity as percentage of control reaction without inhibitor
[4] = Leu-AMC, cations 0.5 mM and 1 mM
[5] = cation salt 0.5 mM, Leu-MCA substrate, 15 min pre-incubation
[6] = cation salt 1 mM, Leu-MCA substrate, 15 min pre-incubation
[7] = inhibitor 100 μM, Leu-MCA substrate, 15 min pre-incubation
[8] = inhibitor 1 mM, Leu-MCA substrate, 15 min pre-incubation
[9] = inhibitor 5 mM, Leu-MCA substrate, 15 min pre-incubation

Chain of ruLAP1 (Q5QHG5 21-373): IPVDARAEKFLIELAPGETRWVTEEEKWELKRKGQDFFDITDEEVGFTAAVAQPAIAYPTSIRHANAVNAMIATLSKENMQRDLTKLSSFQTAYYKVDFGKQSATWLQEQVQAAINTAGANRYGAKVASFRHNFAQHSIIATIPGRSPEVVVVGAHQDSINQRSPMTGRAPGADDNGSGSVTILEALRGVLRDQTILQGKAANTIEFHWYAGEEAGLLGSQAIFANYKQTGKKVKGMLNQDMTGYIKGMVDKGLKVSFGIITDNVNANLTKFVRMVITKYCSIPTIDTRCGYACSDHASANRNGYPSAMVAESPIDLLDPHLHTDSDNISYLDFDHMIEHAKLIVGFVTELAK
Chain of fuLAP1 (Q5VJG6 16-388): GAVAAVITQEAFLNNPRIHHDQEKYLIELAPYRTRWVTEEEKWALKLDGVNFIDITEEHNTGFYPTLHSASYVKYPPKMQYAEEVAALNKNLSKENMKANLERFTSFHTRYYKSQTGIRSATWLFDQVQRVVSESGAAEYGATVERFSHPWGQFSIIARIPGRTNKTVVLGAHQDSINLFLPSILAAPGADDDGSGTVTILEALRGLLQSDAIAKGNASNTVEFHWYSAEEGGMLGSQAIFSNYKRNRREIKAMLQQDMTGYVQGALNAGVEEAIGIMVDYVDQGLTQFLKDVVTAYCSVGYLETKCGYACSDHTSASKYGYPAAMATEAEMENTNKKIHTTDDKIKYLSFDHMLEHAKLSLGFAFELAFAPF
Chain of ruLAP2 (Q5QHG6 20-495): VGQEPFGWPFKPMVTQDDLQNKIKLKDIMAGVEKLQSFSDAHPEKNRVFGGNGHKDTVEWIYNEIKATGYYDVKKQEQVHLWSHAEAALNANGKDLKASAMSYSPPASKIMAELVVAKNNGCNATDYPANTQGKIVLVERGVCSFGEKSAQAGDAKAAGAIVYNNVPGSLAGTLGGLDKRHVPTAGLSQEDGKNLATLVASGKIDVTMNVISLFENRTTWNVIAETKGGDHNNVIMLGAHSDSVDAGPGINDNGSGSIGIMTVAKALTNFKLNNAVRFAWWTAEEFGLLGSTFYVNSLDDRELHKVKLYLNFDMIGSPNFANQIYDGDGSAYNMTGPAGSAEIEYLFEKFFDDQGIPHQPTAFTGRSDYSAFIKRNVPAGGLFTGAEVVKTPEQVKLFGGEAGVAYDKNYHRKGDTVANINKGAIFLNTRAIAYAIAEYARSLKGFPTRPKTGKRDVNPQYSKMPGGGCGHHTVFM

Structure (SMILES): N=C(N)c1ccccc1 [benzamidine]
- effect of inhibitor on ruLAP2 activity (ruLAP2): no clear inhibitory effects
- effect of inhibitor on pkLAP activity ([1]; Leu-AMC 5 mM): no clear inhibitory effects
- remaining activity at 40 µM ([1]; inhibitor 40 μM, Leu-MCA substrate, 15 min pre-incubation, read-out: pkLAP activity as percentage of control reaction without inhibitor): 75%
- effect of inhibitor on fuLAP2 activity (fuLAP2): no clear inhibitory effects
- fuLAP2 activity as percentage of control reaction without inhibitor (fuLAP2; inhibitor 40 μM, Leu-MCA substrate, 15 min pre-incubation): 91%
- effect of inhibitor on fuLAP1 activity (fuLAP1; Leu-AMC 5 mM): no clear inhibitory effects
- remaining activity at 40 µM (fuLAP1; inhibitor 40 μM, Leu-MCA substrate, 15 min pre-incubation, read-out: fuLAP1 activity as percentage of control reaction without inhibitor): 77%
- effect of inhibitor on ruLAP1 activity (ruLAP1): no clear inhibitory effects

Structure (SMILES): O=C(O)CN(CCN(CC(=O)O)CC(=O)O)CC(=O)O [EDTA]
- effect of inhibitor on ruLAP2 activity (ruLAP2): more sensitive
- remaining activity at 1000 µM [1, 2]: 68%
- remaining activity at 5000 µM [1, 2]: 99%
- fuLAP2 activity as percentage of control reaction without inhibitor (fuLAP2): 50% and 77%
- effect of inhibitor on fuLAP1 activity (fuLAP1): more sensitive
- remaining activity at 1000 µM (fuLAP1; [3]): 19%
- remaining activity at 5000 µM (fuLAP1; [3]): 16%
- effect of inhibitor on ruLAP1 activity (ruLAP1): more sensitive

Structure (SMILES): [Cl-].[Cl-].[Co+2] [Co^++, CoCl2]
- effect of divalent cation on ruLAP2 activity (ruLAP2; [4]): highly activated
- ruLAP2 activity as percentage of control reaction without any cation (ruLAP2; cation salt 0.5 mM): 591.2%
- ruLAP2 activity as percentage of control reaction without any cation (ruLAP2; cation salt 1 mM): 789.7%
- pkLAP activity as percentage of control reaction without any cation [1, 5]: 876.1%
- pkLAP activity as percentage of control reaction without any cation [1, 6]: 899.8%
- effect of divalent cation on fuLAP2 activity (fuLAP2; [4]): highly activated
- fuLAP2 activity as percentage of control reaction without any cation (fuLAP2; [5]): 378.0%
- fuLAP2 activity as percentage of control reaction without any cation (fuLAP2; [6]): 662.7%
- fuLAP1 activity as percentage of control reaction without any cation (fuLAP1; [5]): 104.3%
- fuLAP1 activity as percentage of control reaction without any cation (fuLAP1; [6]): 96.5%
- ruLAP1 activity as percentage of control reaction without any cation (ruLAP1): 210.2% and 202.1%

Structure (SMILES): [Cl][Ni][Cl] [Ni, NiCl2]
- ruLAP2 activity as percentage of control reaction without any cation (ruLAP2; cation salt 0.5 mM): 130.5%
- ruLAP2 activity as percentage of control reaction without any cation (ruLAP2; cation salt 1 mM): 147.9%
- effect of divalent cation on pkLAP activity [1, 4]: highly activated
- pkLAP activity as percentage of control reaction without any cation [1, 5]: 1187.7%
- pkLAP activity as percentage of control reaction without any cation [1, 6]: 1158.7%
- fuLAP2 activity as percentage of control reaction without any cation (fuLAP2; [5]): 98.4%
- fuLAP2 activity as percentage of control reaction without any cation (fuLAP2; [6]): 149.3%
- fuLAP1 activity as percentage of control reaction without any cation (fuLAP1; [5]): 51.7%
- fuLAP1 activity as percentage of control reaction without any cation (fuLAP1; [6]): 37.2%
- ruLAP1 activity as percentage of control reaction without any cation (ruLAP1): 74.8% and 58.1%

Structure (SMILES): CC(C)C[C@H](NC(=O)[C@H]1O[C@@H]1C(=O)O)C(=O)NCCCCN=C(N)N [E 64]
- ruLAP2 activity as percentage of control reaction without inhibitor (ruLAP2; inhibitor 100 μM): 34%
- pkLAP activity as percentage of control reaction without inhibitor [1, 7]: 93%
- fuLAP2 activity as percentage of control reaction without inhibitor (fuLAP2; [7]): 71%
- fuLAP1 activity as percentage of control reaction without inhibitor (fuLAP1; [7]): 190%
- ruLAP1 activity as percentage of control reaction without inhibitor (ruLAP1; 100 µM): 103%

Structure (SMILES): c1cnc2c(c1)ccc1cccnc12 [orthophenanthroline]
- ruLAP2 activity as percentage of control reaction without inhibitor (ruLAP2; inhibitor 1 mM): 0%
- ruLAP2 activity as percentage of control reaction without inhibitor (ruLAP2; inhibitor 5 mM): 0%
- pkLAP activity as percentage of control reaction without inhibitor [1, 8]: 0%
- pkLAP activity as percentage of control reaction without inhibitor [1, 9]: 0%
- fuLAP2 activity as percentage of control reaction without inhibitor (fuLAP2; [8]): 0%
- fuLAP2 activity as percentage of control reaction without inhibitor (fuLAP2; [9]): 0%
- fuLAP1 activity as percentage of control reaction without inhibitor (fuLAP1; [8]): 0%
- fuLAP1 activity as percentage of control reaction without inhibitor (fuLAP1; [9]): 0%
- ruLAP1 activity as percentage of control reaction without inhibitor (ruLAP1; [8]): 0%
- ruLAP1 activity as percentage of control reaction without inhibitor (ruLAP1; [9]): 0%

Structure (SMILES): CC(C)C[C@@H](N)[C@H](O)C(=O)N[C@H](C(=O)N[C@H](C(=O)N[C@@H](CC(=O)O)C(=O)O)C(C)C)C(C)C [amastatin]
- effect of inhibitor on ruLAP2 activity (ruLAP2): strongly or totally inhibited
- effect of inhibitor on pkLAP activity [1]: strongly or totally inhibited
- remaining activity at 500 µM [1, 2]: 0%
- effect of inhibitor on fuLAP2 activity (fuLAP2): strongly or totally inhibited
- fuLAP2 activity as percentage of control reaction without inhibitor (fuLAP2; inhibitor 500 μM, Leu-MCA substrate, 15 min pre-incubation): 0%
- effect of inhibitor on fuLAP1 activity (fuLAP1; Leu-AMC 5 mM): strongly or totally inhibited
- remaining activity at 500 µM (fuLAP1; inhibitor 500 μM, Leu-MCA substrate, 15 min pre-incubation, read-out: fuLAP1 activity as percentage of control reaction without inhibitor): 17%
- effect of inhibitor on ruLAP1 activity (ruLAP1): strongly or totally inhibited

Source: patent US7354734B2, “Fungal proteins and nucleic acids encoding same” (priority 2003, dated 2008)
